Data published in patent US10028961B2, “Therapeutically active compounds and their methods of use” (AGIOS PHARMACEUTICALS, INC., priority 2013, dated 2018).
Where two headings read alike, the source gives them in different places.

Assays:
[1] = tested on: U87MG pLVX-IDH2 R140Q-neo cells; assay: U87MG pLVX-IDH2 R140Q-neo cell based assay, 2-HG by LC-MS; details: Homo sapiens, U-87 MG
IDH2 R140Q = IDH2 R140Q (Homo sapiens (Human), UniProt P48735, R140Q); assay: In vitro assay for IDH2m R140Q inhibitors, cofactor depletion assay; assay type: biochemical; details: IDH2 R140Q enzyme
Summary of the method: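 Remaining cofactor measured fluorimetrically: diaphorase/resazurin Stop Mix […], halting the reaction. Before that, mutant enzyme and compound sat 1 h at RT, then substrate mix (4 μM NADPH, 1.6 mM α-KG) was added for 16 h at RT.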

[2] = target: IDH1-R132H homodimer enzyme (Homo sapiens (Human), UniProt O75874, R132H); assay: In vitro assay IDH1-R132H homodimer, NADPH depletion assay with NADPH/NADP preincubation; assay type: biochemical; details: 5 μM NADPH and 37.5 μM NADP
Method: The following describes the experimental procedures that can be used to obtain data on columns 3 and 5 of Table 5.
A test compound is prepared as 10 mM stock in DMSO and diluted to 50× final concentration in DMSO, for a 50 μl reaction mixture. IDH enzyme activity converting alpha-ketoglutarate to 2-hydroxyglutaric acid is measured using a NADPH depletion assay. In the assay the remaining cofactor is measured at the end of the reaction with the addition of a catalytic excess of diaphorase and resazurin, to generate a fluorescent signal in proportion to the amount of NADPH remaining. […] The reaction is started with the addition of 10 μl of Substrate Mix ([…], 5 mM alpha-ketoglutarate, in Assay Buffer) and the mixture is incubated for 60 minutes at room temperature.

[3] = tested on: Neurosphere cells (TS603); assay: Cellular assay for IDH1m R132H inhibitors, 2-HG by LC-MS in neurosphere cells (TS603); assay type: cell-based; details: 2-HG in media at 48 hours
Method: Cellular Assay for IDH1m R132H Inhibitors.
The following describes the experimental procedures that can be used to obtain data in column 4 of Table 5.
Neurosphere cells (TS603) are grown at 37 C in 5% CO2 in Stem Cell Technologies NeuroCult™ NS-A media supplemented with 1% Primocin, 1% Normocin, 0.0002% Heparin, 20 ng/mL EGF and 10 ng/mL bFGF. Cells are harvested, pelleted and resuspended in Accumax for cell dissociation and counting. Cells are counted and then resuspended in NeuroCult media with 2× heparin, EGF and bFGF at 4 million cells/10 mL media. 100 μl of cell solution are plated in each well of a 96 well with the exception of columns 1 and 12. Columns 1 and 12 contain 200 μL PBS. Compound dose responses are set up at a 2× concentration in Neurocult media without heparin, EGF and bFGF. The final concentration of DMSO is 0.25%. DMSO only control wells are plated in row H. The plates are then placed in the incubator for 48 hours. At 48 hours, 100 μl of media is removed from each well and analyzed by LC-MS for 2-HG concentrations. The cell plate is placed back in the incubator for another 24 hours. At 72 hours post compound addition, 10 mL/plate of Promega Cell Titer Glo reagent is thawed and mixed. The cell plate is removed from the incubator and allowed to equilibrate to room temperature. Then 100 μl of Promega Cell Titer Glo reagent is added to each well of media. The cell plate is then placed on an orbital shaker for 10 minutes and then allowed to sit at room temperature for 20 minutes. The plate is then read for luminescence with an integration time of 500 ms.

[4] = target: IDH1 wt/IDH1 R132H heterodimer (Homo sapiens (Human), UniProt O75874, R132H); assay: In vitro assay for IDH1m R132H inhibitors, IDH1 wt/IDH1 R132H heterodimer, NADPH depletion (diaphorase/resazurin); assay type: biochemical
Summary of the method: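 Read-out is NADPH left after α-KG reduction to 2-HG, measured via resorufin fluorescence after 5 min diaphorase/resazurin step at 25° C. Enzyme is sf9-expressed IDH1wt-his/IDH1R132H-flag heterodimer, pre-incubated 1 hr at room temperature with compound and cofactor. IC50s from DMSO stocks diluted 1:50.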

[5] = IDH1 wt/R132H heterodimer, NADPH/NADP, not saturated, read-out: IDH1 wt/R132H NADPH/NADP IC50 not saturated
[6] = IDH1 wt/IDH1 R132H heterodimer, 300 μM NADP (saturated), read-out: IDH1 wt/R132H NADPH/NADP IC50 saturated

Sequence of IDH1-R132H homodimer enzyme (O75874 whole entry R132H): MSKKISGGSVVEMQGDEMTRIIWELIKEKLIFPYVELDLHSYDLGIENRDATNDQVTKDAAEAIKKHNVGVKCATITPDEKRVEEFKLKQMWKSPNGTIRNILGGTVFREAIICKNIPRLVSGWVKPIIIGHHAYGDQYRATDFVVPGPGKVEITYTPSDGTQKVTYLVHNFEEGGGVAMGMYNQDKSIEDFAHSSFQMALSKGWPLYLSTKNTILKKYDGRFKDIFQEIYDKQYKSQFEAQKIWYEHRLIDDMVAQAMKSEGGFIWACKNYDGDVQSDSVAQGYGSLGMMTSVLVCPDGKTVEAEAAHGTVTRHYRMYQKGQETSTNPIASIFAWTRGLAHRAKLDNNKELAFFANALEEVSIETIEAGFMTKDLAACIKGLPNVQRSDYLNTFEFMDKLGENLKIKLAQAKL
Sequence of IDH1 wt/IDH1 R132H heterodimer (O75874 whole entry R132H): as above
Sequence of IDH1 wt/IDH1 R132H heterodimer (O75874 whole entry, stated change not applied): as the sequence (O75874 whole entry R132H) above, with H132R counted along it
Sequence of IDH2 R140Q (P48735 40-452 R140Q): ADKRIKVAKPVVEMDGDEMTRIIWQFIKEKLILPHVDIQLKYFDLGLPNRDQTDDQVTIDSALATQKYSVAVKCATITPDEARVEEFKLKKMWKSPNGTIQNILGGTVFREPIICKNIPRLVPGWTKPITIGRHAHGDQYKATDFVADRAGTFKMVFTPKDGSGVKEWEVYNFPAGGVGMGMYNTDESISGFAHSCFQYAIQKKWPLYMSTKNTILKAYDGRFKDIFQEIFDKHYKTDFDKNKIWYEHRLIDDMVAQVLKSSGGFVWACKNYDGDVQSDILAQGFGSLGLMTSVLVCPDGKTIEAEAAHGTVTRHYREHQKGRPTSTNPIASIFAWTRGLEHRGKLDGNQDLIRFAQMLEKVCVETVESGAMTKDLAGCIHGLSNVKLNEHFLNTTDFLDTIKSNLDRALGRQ

Row | Compound | IC50 [1] [nM] | IC50 (IDH2 R140Q) [nM] | IC50 [2] [nM] | IC50 [3] [nM] | IC50 [4, 5] [nM] | IC50 [4, 6] [nM]
1 | Cc1nc(-c2nc(NC3CCC(F)(F)CC3)nc(NC3CCC(F)(F)CC3)n2)c[nH]1 [Compound 332] | – | – | > 1000 | – | > 1000 | –
2 | Cc1nsc(-c2nc(NC3CCC(F)(F)CC3)nc(NC3CCC(F)(F)CC3)n2)n1 [Compound 328] | – | – | > 1000 | – | > 1000 | –
3 | Cn1cc(-c2nc(NC3CCC(F)(F)CC3)nc(NC3CCC(F)(F)CC3)n2)c(C(F)(F)F)n1 [Compound 275] | – | – | > 1000 | – | 100 to 1000 | –
4 | Cc1nc(-c2nc(NC3CC(F)(F)C3)nc(NC3CC(F)(F)C3)n2)c[nH]1 [Compound 317] | – | – | > 1000 | – | > 1000 | –
5 | Oc1ccc(F)c(-c2nc(NC3CCC(F)(F)CC3)nc(NC3CCC(F)(F)CC3)n2)n1 [Compound 309] | – | – | > 1000 | – | > 1000 | –
6 | CC(F)(F)c1nc(-c2nc(NC3CCC(F)(F)CC3)nc(NC3CCC(F)(F)CC3)n2)cs1 [Compound 283] | 100 to 1000 | 100 to 1000 | > 1000 | – | 100 to 1000 | –
7 | FC1(F)CCC(Nc2cc(NC3CCC(F)(F)CC3)nc(-c3cncc(C(F)(F)F)n3)n2)CC1 [Compound 421] | – | – | 100 to 1000 | – | 100 to 1000 | –
8 | COCCc1ccnc(-c2nc(NC3CCC(F)(F)CC3)nc(NC3CCC(F)(F)CC3)n2)n1 [Compound 315] | – | – | > 1000 | – | > 1000 | –
9 | FC1(F)CCC(Nc2nc(NC3CCC(F)(F)CC3)nc(-c3nc(-c4ccccc4)ns3)n2)CC1 [Compound 333] | – | – | > 1000 | – | > 1000 | –
10 | C[C@@H](Nc1nc(N[C@H](C)C(F)(F)F)nc(-c2ccnc(C(F)(F)F)n2)n1)C(F)(F)F [Compound 344] | 50 to 100 | 50 to 100 | – | < 50 | – | 50 to 100
11 | C[C@@H](Nc1nc(Nc2ccnc(C3(C#N)CC3)c2)nc(-c2cccc(C(F)(F)F)n2)n1)C(F)(F)F [Compound 352] | < 50 | < 50 | – | < 50 | – | < 50
12 | Cc1nc(-c2nc(NC3CCC(F)(F)C3)nc(NC3CCC(F)(F)C3)n2)c[nH]1 (stereo not drawn) [Compound 319] | – | – | > 1000 | – | > 1000 | –
13 | CC(F)(F)c1cc(Nc2nc(NC3CC(F)(F)C3)nc(-c3cccc(C(F)(F)F)n3)n2)ccn1 [Compound 358] | < 50 | < 50 | – | < 50 | – | < 50
14 | FC1(F)CCC(Nc2nc(Nc3ccnc(C(F)(F)F)c3)nc(-c3nc(C(F)(F)F)cs3)n2)C1 (stereo not drawn) [Compound 353] | < 50 | < 50 | – | < 50 | – | < 50
15 | Fc1ccc2c(c1)CC(Nc1nc(NC3CCC(F)(F)C3)nc(-c3cccc(C(F)(F)F)n3)n1)C2 (stereo not drawn) [Compound 150] | < 50 | < 50 | – | < 50 | < 50 | –
16 | C[C@@H](Nc1nc(N[C@H](C)C2CC2)nc(-c2cccc(C(F)F)n2)n1)C1CC1 [Compound 198] | < 50 | < 50 | – | < 50 | < 50 | –

Results, then the compound that gave them:

Row | IC50 [1] [nM] | IC50 (IDH2 R140Q) [nM] | IC50 [2] [nM] | IC50 [3] [nM] | IC50 [4, 5] [nM] | IC50 [4, 6] [nM] | Compound
17 | < 50 | < 50 | < 50 | < 50 | < 50 | – | FC1(F)CC[C@@H](Nc2nc(Nc3ccnc(C(F)(F)F)c3)nc(-c3cccc(C(F)(F)F)n3)n2)C1 [Compound 172]
18 | < 50 | < 50 | 50 to 100 | < 50 | < 50 | – | CC(Nc1nc(Nc2ccnc(C(F)(F)F)c2)nc(-n2ccc(C(F)(F)F)n2)n1)C(F)(F)F (stereo not drawn) [Compound 177]
19 | < 50 | < 50 | < 50 | < 50 | < 50 | – | Fc1cc(F)cc(Nc2nc(NC3CC(F)(F)C3)nc(-c3cncc(Cl)n3)n2)c1 [Compound 120]
20 | < 50 | < 50 | < 50 | < 50 | < 50 | – | FC1(F)CCC(Nc2nc(NC3CCC(F)(F)C3)nc(-c3cncc(C(F)(F)F)n3)n2)C1 (stereo not drawn) [Compound 138]
21 | < 50 | < 50 | < 50 | < 50 | < 50 | – | N#CC1(c2cc(Nc3nc(NC4CCC(F)(F)C4)nc(-n4ccc(C(F)(F)F)n4)n3)ccn2)CC1 (stereo not drawn) [Compound 185]
22 | < 50 | < 50 | – | < 50 | – | < 50 | FC1(F)CC[C@@H](Nc2nc(N[C@H]3CCC(F)(F)C3)nc(-c3cncc(C(F)(F)F)n3)n2)C1 [Compound 399]
23 | < 50 | < 50 | – | < 50 | < 50 | – | FC1(F)CCC(Nc2nc(NC3CCC(c4ccccc4)C3)nc(-c3cccc(C(F)(F)F)n3)n2)C1 (stereo not drawn) [Compound 184]
24 | < 50 | < 50 | – | < 50 | – | 100 to 1000 | N#CC1(c2cc(Nc3nc(N[C@@H]4CCC(F)(F)C4)nc(-c4ccnc(C(F)(F)F)n4)n3)ccn2)CC1 [Compound 342]
25 | < 50 | < 50 | < 50 | < 50 | < 50 | – | FC1(F)CCC(Nc2nc(Nc3ccnc(C(F)(F)F)c3)nc(-n3ccc(C(F)(F)F)n3)n2)C1 (stereo not drawn) [Compound 173]
26 | < 50 | < 50 | – | < 50 | – | < 50 | CC(F)(F)c1cncc(-c2nc(NC3CC(F)(F)C3)nc(NC3CC(F)(F)C3)n2)n1 [Compound 366]
27 | < 50 | < 50 | – | < 50 | – | < 50 | N#CC1(c2cc(Nc3nc(N[C@H]4CCC(F)(F)C4)nc(-c4cncc(C(F)(F)F)n4)n3)ccn2)CC1 [Compound 373]
28 | < 50 | < 50 | – | < 50 | – | 100 to 1000 | FC1(F)CC2(CC(Nc3nc(Nc4ccnc(C(F)(F)F)c4)nc(-c4cncc(C(F)(F)F)n4)n3)C2)C1 [Compound 380]
29 | < 50 | < 50 | – | < 50 | – | 50 to 100 | FC(F)(F)c1cc(Nc2nc(NCC3CC3)nc(-c3nc(C(F)(F)F)cs3)n2)ccn1 [Compound 379]
30 | < 50 | < 50 | – | < 50 | – | < 50 | C[C@H](Nc1nc(Nc2ccnc(C3(C#N)CC3)c2)nc(-n2ccc(C(F)(F)F)n2)n1)C(F)(F)F [Compound 349]
31 | < 50 | < 50 | – | < 50 | – | < 50 | C[C@@H](Nc1nc(Nc2ccnc(C3(C#N)CC3)c2)nc(-c2cccc(C(C)(F)F)n2)n1)C(F)(F)F [Compound 348]
32 | < 50 | < 50 | – | < 50 | – | < 50 | C[C@H](Nc1nc(Nc2ccnc(C3(C#N)CC3)c2)nc(-c2cccc(C(C)(F)F)n2)n1)C(F)(F)F [Compound 347]
33 | < 50 | < 50 | – | < 50 | – | < 50 | CC[C@H](Nc1nc(N[C@@H](CC)C(F)(F)F)nc(-c2cccc(C(F)(F)F)n2)n1)C(F)(F)F [Compound 346]
34 | < 50 | < 50 | – | < 50 | < 50 | – | Fc1cc(F)cc(Nc2nc(NC3CCC(F)(F)C3)nc(-c3cncc(Cl)n3)n2)c1 (stereo not drawn) [Compound 109]
35 | < 50 | < 50 | – | < 50 | – | < 50 | CC(F)(F)c1cc(Nc2nc(N[C@@H]3CCC(F)(F)C3)nc(-c3cccc(C(F)(F)F)n3)n2)ccn1 [Compound 355]
36 | < 50 | < 50 | – | < 50 | – | < 50 | C[C@@H](Nc1nc(Nc2ccnc(-c3ccccc3)c2)nc(-c2cccc(C(F)(F)F)n2)n1)C(F)(F)F [Compound 359]
